From the supplement of paper PMC10307832

Tests used:
Assay in all cases: relative viability (nuclei count vs DMSO), 5 days (fraction); higher = more cells survive
[1] = compound: C=CC(=O)N1CCC[C@@H](n2nc(-c3ccc(Oc4ccccc4)cc3)c3c(N)ncnc32)C1 [Ibrutinib] + CC(C)C[C@H](NC(=O)[C@H](Cc1ccccc1)NC(=O)c1cnccn1)B(O)O [Bortezomib] (partner 0.002 µM)
Outline: (§1)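 Relative viability divides the nuclei count in treated wells by that in vehicle wells. Lung cancer cell lines were seeded in 1536-well plates, dosed by pin tool the next day, and fixed and stained after 5 days in one step with final 0.05% Triton X-100, 1% formaldehyde and 1 ug/ml Hoechst. Dosing was a single drug or a fixed anchor-drug dose plus five library-drug doses (not always all listed) in √10 steps, and values are medians of duplicate plates imaged at 4×.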

[2] = compound: C=CC(=O)N1CCC[C@@H](n2nc(-c3ccc(Oc4ccccc4)cc3)c3c(N)ncnc32)C1 [Ibrutinib] + Cc1nc(Nc2ncc(C(=O)Nc3c(C)cccc3Cl)s2)cc(N2CCN(CCO)CC2)n1 [Dasatinib] (partner 0.075 µM)
Outline: as §1

[3] = compound: C=CC(=O)Nc1cc(-n2c(=O)ccc3cnc4ccc(-c5ccc(NS(C)(=O)=O)cc5)cc4c32)ccc1C [BMX-IN-1] + CC(=O)c1c(C)c2cnc(Nc3ccc(N4CCNCC4)cn3)nc2n(C2CCCC2)c1=O [Palbociclib] (partner 0.5 µM)
Outline: as §1

[4] = compound: C=CC(=O)Nc1cc(-n2c(=O)ccc3cnc4ccc(-c5ccc(NS(C)(=O)=O)cc5)cc4c32)ccc1C [BMX-IN-1] + CC1(C)CCC(c2ccc(Cl)cc2)=C(CN2CCN(c3ccc(C(=O)NS(=O)(=O)c4ccc(N[C@H](CCN5CCOCC5)CSc5ccccc5)c(S(=O)(=O)C(F)(F)F)c4)cc3)CC2)C1 [Navitoclax] (partner 0.5 µM)
Outline: as §1

Question: With NCI-H1975 as the cell line, how does the relative viability ([1]; first compound 0.005 µM) read?
Answer: 0.417

Question: What about the relative viability ([1]; first compound 0.01581 µM) of the same cell line?
Answer: 0.328

Question: What about the relative viability ([1]; first compound 0.05 µM) of the same cell line?
Answer: 0.274

Question: And the relative viability ([1]; first compound 0.1581 µM)?
Answer: 0.383

Question: And the relative viability ([1]; first compound 0.5 µM)?
Answer: 0.226

Question: And the relative viability ([2]; first compound 0.005 µM)?
Answer: 0.349

Question: And the relative viability ([2]; first compound 0.01581 µM)?
Answer: 0.293

Question: What about the relative viability ([2]; first compound 0.05 µM) of the same cell line?
Answer: 0.263

Question: And the relative viability ([2]; first compound 0.1581 µM)?
Answer: 0.345

Question: And the relative viability ([2]; first compound 0.5 µM)?
Answer: 0.134

Question: What about the relative viability ([3]; first compound 0.02 µM) of the same cell line?
Answer: 1

Question: What about the relative viability ([3]; first compound 0.2 µM) of the same cell line?
Answer: 0.655

Question: What about the relative viability ([3]; first compound 0.6325 µM) of the same cell line?
Answer: 0.685

Question: And the relative viability ([3]; first compound 2 µM)?
Answer: 0.698

Question: And the relative viability ([4]; first compound 0.02 µM)?
Answer: 1.34

Question: And the relative viability ([4]; first compound 0.2 µM)?
Answer: 1.19

Question: What about the relative viability ([4]; first compound 0.6325 µM) of the same cell line?
Answer: 1.34

Question: What about the relative viability ([4]; first compound 2 µM) of the same cell line?
Answer: 1

Question: What does the source list for NCI-H1993?
Answer: relative viability ([1]; first compound 0.005 µM): 0.728; relative viability ([1]; first compound 0.01581 µM): 0.882; relative viability ([1]; first compound 0.05 µM): 0.789; relative viability ([1]; first compound 0.5 µM): 0.681; relative viability ([2]; first compound 0.005 µM): 0.504; relative viability ([2]; first compound 0.01581 µM): 0.658; relative viability ([2]; first compound 0.05 µM): 0.532; relative viability ([2]; first compound 0.1581 µM): 0.53; relative viability ([2]; first compound 0.5 µM): 0.56; relative viability ([3]; first compound 0.02 µM): 0.706; relative viability ([3]; first compound 0.2 µM): 0.683; relative viability ([3]; first compound 0.6325 µM): 0.646; relative viability ([3]; first compound 2 µM): 0.55; relative viability ([4]; first compound 0.02 µM): 1.07; relative viability ([4]; first compound 0.2 µM): 0.875; relative viability ([4]; first compound 2 µM): 0.958

Question: What does the source list for NCI-H2009?
Answer: relative viability ([1]; first compound 0.005 µM): 1.09; relative viability ([1]; first compound 0.01581 µM): 1; relative viability ([1]; first compound 0.05 µM): 0.988; relative viability ([1]; first compound 0.1581 µM): 0.864; relative viability ([1]; first compound 0.5 µM): 1.05; relative viability ([2]; first compound 0.005 µM): 0.3; relative viability ([2]; first compound 0.01581 µM): 0.254; relative viability ([2]; first compound 0.05 µM): 0.319; relative viability ([2]; first compound 0.1581 µM): 0.267; relative viability ([2]; first compound 0.5 µM): 0.386; relative viability ([3]; first compound 0.02 µM): 0.182; relative viability ([3]; first compound 0.2 µM): 0.212; relative viability ([3]; first compound 0.6325 µM): 0.207; relative viability ([3]; first compound 2 µM): 0.254; relative viability ([4]; first compound 0.02 µM): 1.23; relative viability ([4]; first compound 0.2 µM): 1.31; relative viability ([4]; first compound 0.6325 µM): 1.19; relative viability ([4]; first compound 2 µM): 1.24

Question: What does the source list for NCI-H2023?
Answer: relative viability ([1]; first compound 0.005 µM): 0.848; relative viability ([1]; first compound 0.01581 µM): 0.819; relative viability ([1]; first compound 0.05 µM): 0.949; relative viability ([1]; first compound 0.1581 µM): 1.04; relative viability ([1]; first compound 0.5 µM): 0.876; relative viability ([2]; first compound 0.005 µM): 0.578; relative viability ([2]; first compound 0.01581 µM): 0.546; relative viability ([2]; first compound 0.05 µM): 0.532; relative viability ([2]; first compound 0.1581 µM): 0.55; relative viability ([2]; first compound 0.5 µM): 0.516; relative viability ([3]; first compound 0.02 µM): 0.48; relative viability ([3]; first compound 0.2 µM): 0.389; relative viability ([3]; first compound 0.6325 µM): 0.386; relative viability ([3]; first compound 2 µM): 0.381; relative viability ([4]; first compound 0.02 µM): 1.36; relative viability ([4]; first compound 0.2 µM): 1.15; relative viability ([4]; first compound 0.6325 µM): 1.12; relative viability ([4]; first compound 2 µM): 0.988

Question: Which relative viability ([1]; first compound 0.01581 µM) does the source give for NCI-H2085 here?
Answer: 0.954

Question: And the relative viability ([1]; first compound 0.05 µM)?
Answer: 0.983

Question: And the relative viability ([1]; first compound 0.1581 µM)?
Answer: 0.963

Question: What about the relative viability ([1]; first compound 0.5 µM) of the same cell line?
Answer: 0.963

Question: And the relative viability ([2]; first compound 0.005 µM)?
Answer: 0.26

Question: And the relative viability ([2]; first compound 0.01581 µM)?
Answer: 0.254

Question: What about the relative viability ([2]; first compound 0.05 µM) of the same cell line?
Answer: 0.219

Question: And the relative viability ([2]; first compound 0.1581 µM)?
Answer: 0.202

Question: What about the relative viability ([2]; first compound 0.5 µM) of the same cell line?
Answer: 0.216

Question: What about the relative viability ([3]; first compound 0.02 µM) of the same cell line?
Answer: 0.473

Question: What about the relative viability ([3]; first compound 0.2 µM) of the same cell line?
Answer: 0.438

Question: And the relative viability ([3]; first compound 0.6325 µM)?
Answer: 0.484

Question: And the relative viability ([3]; first compound 2 µM)?
Answer: 0.46

Question: And the relative viability ([4]; first compound 0.02 µM)?
Answer: 1.23

Question: What about the relative viability ([4]; first compound 0.2 µM) of the same cell line?
Answer: 1.31

Question: What about the relative viability ([4]; first compound 0.6325 µM) of the same cell line?
Answer: 1.2

Question: And the relative viability ([4]; first compound 2 µM)?
Answer: 1.07

Question: NCI-H2087 was tested. Which relative viability ([1]; first compound 0.005 µM) did it give?
Answer: 0.755

Question: And the relative viability ([1]; first compound 0.01581 µM)?
Answer: 0.741

Question: And the relative viability ([1]; first compound 0.05 µM)?
Answer: 0.851

Question: What about the relative viability ([1]; first compound 0.1581 µM) of the same cell line?
Answer: 0.844

Question: And the relative viability ([1]; first compound 0.5 µM)?
Answer: 0.889

Question: And the relative viability ([2]; first compound 0.005 µM)?
Answer: 1.11

Question: And the relative viability ([2]; first compound 0.01581 µM)?
Answer: 0.91

Question: And the relative viability ([2]; first compound 0.05 µM)?
Answer: 1.01

Question: And the relative viability ([2]; first compound 0.5 µM)?
Answer: 0.951

Question: What about the relative viability ([3]; first compound 0.02 µM) of the same cell line?
Answer: 0.214

Question: And the relative viability ([3]; first compound 0.2 µM)?
Answer: 0.229

Question: And the relative viability ([3]; first compound 0.6325 µM)?
Answer: 0.252

Question: What about the relative viability ([3]; first compound 2 µM) of the same cell line?
Answer: 0.257

Question: And the relative viability ([4]; first compound 0.02 µM)?
Answer: 1.03

Question: What about the relative viability ([4]; first compound 0.2 µM) of the same cell line?
Answer: 1.18

Question: What about the relative viability ([4]; first compound 0.6325 µM) of the same cell line?
Answer: 1.01

Question: And the relative viability ([4]; first compound 2 µM)?
Answer: 1.08

Question: How did the relative viability ([1]; first compound 0.01581 µM) turn out when NCI-H2126 was run?
Answer: 1.13

Question: And the relative viability ([1]; first compound 0.05 µM)?
Answer: 1.12

Question: What about the relative viability ([1]; first compound 0.1581 µM) of the same cell line?
Answer: 1.11

Question: And the relative viability ([1]; first compound 0.5 µM)?
Answer: 1.1

Question: What about the relative viability ([2]; first compound 0.005 µM) of the same cell line?
Answer: 0.506

Question: What about the relative viability ([2]; first compound 0.01581 µM) of the same cell line?
Answer: 0.57

Question: And the relative viability ([2]; first compound 0.05 µM)?
Answer: 0.546

Question: And the relative viability ([2]; first compound 0.1581 µM)?
Answer: 0.574

Question: What about the relative viability ([2]; first compound 0.5 µM) of the same cell line?
Answer: 0.623

Question: What about the relative viability ([3]; first compound 0.02 µM) of the same cell line?
Answer: 0.379

Question: What about the relative viability ([3]; first compound 0.2 µM) of the same cell line?
Answer: 0.345

Question: What about the relative viability ([3]; first compound 0.6325 µM) of the same cell line?
Answer: 0.363

Question: What about the relative viability ([3]; first compound 2 µM) of the same cell line?
Answer: 0.322

Question: What about the relative viability ([4]; first compound 0.02 µM) of the same cell line?
Answer: 0.836

Question: And the relative viability ([4]; first compound 0.2 µM)?
Answer: 0.945

Question: What about the relative viability ([4]; first compound 0.6325 µM) of the same cell line?
Answer: 0.876

Question: And the relative viability ([4]; first compound 2 µM)?
Answer: 0.907

Question: What does the source list for NCI-H2228?
Answer: relative viability ([1]; first compound 0.005 µM): 0.996; relative viability ([1]; first compound 0.01581 µM): 0.989; relative viability ([1]; first compound 0.05 µM): 1.13; relative viability ([1]; first compound 0.1581 µM): 1.37; relative viability ([1]; first compound 0.5 µM): 0.92; relative viability ([2]; first compound 0.005 µM): 0.584; relative viability ([2]; first compound 0.05 µM): 0.553; relative viability ([2]; first compound 0.1581 µM): 0.5; relative viability ([2]; first compound 0.5 µM): 0.428; relative viability ([3]; first compound 0.02 µM): 0.948; relative viability ([3]; first compound 0.2 µM): 0.878; relative viability ([3]; first compound 0.6325 µM): 0.608; relative viability ([3]; first compound 2 µM): 0.785; relative viability ([4]; first compound 0.02 µM): 0.954; relative viability ([4]; first compound 0.2 µM): 0.853; relative viability ([4]; first compound 0.6325 µM): 1.44; relative viability ([4]; first compound 2 µM): 0.969

Question: For NCI-H2347, which relative viability ([1]; first compound 0.01581 µM) is on record?
Answer: 0.982

Question: What about the relative viability ([1]; first compound 0.05 µM) of the same cell line?
Answer: 1.03

Question: What about the relative viability ([1]; first compound 0.5 µM) of the same cell line?
Answer: 0.871

Question: And the relative viability ([2]; first compound 0.01581 µM)?
Answer: 0.298

Question: And the relative viability ([2]; first compound 0.05 µM)?
Answer: 0.274

Question: And the relative viability ([2]; first compound 0.1581 µM)?
Answer: 0.188

Question: And the relative viability ([2]; first compound 0.5 µM)?
Answer: 0.302

Question: And the relative viability ([3]; first compound 0.02 µM)?
Answer: 0.443

Question: What about the relative viability ([3]; first compound 0.2 µM) of the same cell line?
Answer: 0.406

Question: What about the relative viability ([3]; first compound 0.6325 µM) of the same cell line?
Answer: 0.458

Question: And the relative viability ([3]; first compound 2 µM)?
Answer: 0.393

Question: And the relative viability ([4]; first compound 0.02 µM)?
Answer: 0.978

Question: What about the relative viability ([4]; first compound 0.2 µM) of the same cell line?
Answer: 0.887

Question: And the relative viability ([4]; first compound 0.6325 µM)?
Answer: 0.785

Question: And the relative viability ([4]; first compound 2 µM)?
Answer: 0.871
